Reference: patent US11795196B2, “Mitochondria-targeting peptides” (Stealth BioTherapeutics Corp., priority 2017, dated 2023)

What was measured:
isolated rat hearts = experiment: Ischemia-reperfusion injury, Langendorff isolated heart preparation; conditions: 30 min LAD occlusion + 120 min reperfusion, compound 1 μM in perfusion solution, mean; for White Necrotic Area, % of area at risk: only white necrotic tissue
rat [1] = experiment: Rat Acute Kidney Injury (AKI) Model, renal ischemia-reperfusion; type: in vivo; design: concentration or dose not given beside the values; conditions: 30 minutes renal artery occlusion of both kidneys, 24 hours after reperfusion, relative to vehicle
Description: The Rat Acute Kidney Injury (AKI) Model was performed by IPST Therapeutique Inc, Sherbrooke, Quebec, Canada. The animals were randomized in terms of even distribution between treatment groups based on their body weight by the Study Director with the aim of scheduling animal from each group at each day of surgery. The rats will be given free access to food and water. Experimental Procedures Induction of Ischemia-Reperfusion • 1. Rats will be anaesthetized with isoflurane USP (Abbot Laboratories, Montreal Canada) 2% in oxygen and placed on a heated pad to maintain body temperature. The ECG and oxygen saturation will be monitored for the entire surgical process. The body temperature will be monitored with a probe thermometer introduced into the abdomen, very close to the kidneys. • 2. A 1 mL blood draw will be taken from the jugular vein. The blood will be collected into lithium heparin tubes and centrifuged at 3000 rpm for 10 min. to obtain the plasma. The plasma will be separated into 200 μL aliquot and stored at −20° C. until dosage of biomarkers. • 3. The abdomen will be disinfected with providone iodine and alaparotomy will be performed. • 4. The kidneys will be exposed and a temporary suture will be placed around renal artery of the two kidneys. Renal ischemia will be visually confirmed by a gradual changed of the kidneys colour going from red to dark purple within a couple of minutes following the start of the ischemia. During the ischemia, the kidneys will be kept moist and warm using a heat lamp and sterile gauze soaked in warm (37° C.) saline. The temperature will be monitored with a probe thermometer introduced into the abdomen, very close to the kidneys. • 5. After 30 minutes of occlusion, the suture will be removed. • 6. The abdominal wounds will be closed with 4-0 silk suture, and the animal will be return to its cage. • 7. Twenty-four hours after reperfusion the rats will be re-anesthetized. A second blood draw will be taken as was done before the ischemia. • 8. Sham will be treated under same conditions as vehicle, except, kidneys will not be subjected to ischemic conditions. Detection of Biomarkers A 200 μL aliquot of plasma sample will be taken before the ischemia and 24 hours following the ischemia; both will be sent to the clinical laboratory of the CHUS (Centre Hospitalier Universitaire de Sherbrooke, Quebec, Canada) for detection of plasma level of creatinine (p.Cr) and Blood Urea Nitrogen (BUN). Computer Systems The following are the validated computer systems to be used during the conduct of this study. The analysis software will be Microsoft Office Excel 2007 installed on networked personal computers running Microsoft Windows8, XP Professional or Vista. Data Analysis Values are presented as means±SEM (standard error of the means) and presented by the symbol+on the graph. Repeat un-paired Student's t-tests were performed in Microsoft Excel 2007 on all experimental data. Differences were considered significant when p≤ 0.05. The vehicle group was compared to the sham group while the test article was compared to the vehicle group. The plasma creatinine post-UR (% mean of vehicle) was calculated using the following formula:
[formula] Where: p.Cr=Plasma creatinine Mean Δ plasma creatinine in sham group=Mean (plasma creatinine 24 h post-isch.−plasma creatinine pre-isch.) in sham group Mean Δ plasma creatinine in vehicle group=Mean ((plasma creatinine 24 h post-inch.−plasma creatinine pre-isch.)−Mean Δ plasma creatinine in sham group) in vehicle group The BUN post-I/R (% mean of vehicle) was calculated using the following formula:
[formula] […]

rat [2] = experiment: Rat Myocardial Infarction Model; type: in vivo; conditions: s.c. 2×2 mg/kg, 30 min before ischemia and 5 min before reperfusion, 30 min LAD occlusion, 24 hours post-reperfusion, n=8
Description: The Rat Myocardial Infarction Model was performed by IPST Therapeutique Inc, Sherbrooke, Quebec, Canada. The animals were randomized in terms of even distribution between treatment groups based on their body weight by the Study Director with the aim of scheduling animal from each treatment group for each day of surgery (when possible). • 1) Sham group: size of the group: n=2. Route of administration: n/a; • 2) Vehicle group: size of the group: n=8. Route of administration: s.c.; • 3) Testing article group: size of the group: n=8. Route of administration: s.c.; Treatment dose: 2×2 mg/kg, 30 min before ischemia and 5 min before reperfusion. Experimental Procedures Study Design • 1) On the day of the surgery, the rat will be anaesthetized with a mixture of 2 to 2.5%. isoflurane USP (Abbot Laboratories, Montreal Canada) in oxygen, and placed on a heating pad to maintain body temperature. • 2) The animal will be intubated and immediately ventilated by means of a positive-pressure rodent respirator set at 10 mL/kg bodyweight at a frequency of 65-70 strokes/min. • 3) A baseline blood sample (1 mL) will be taken from the jugular vein for baseline biomarkers quantification. The blood will be collected in lithium heparin microtainers and centrifuged at 3000 rpm, at 4±2° C. for 10 minutes. The plasma will be aliquoted in 2 samples of equal volume (approximately 250 μL). […] A 1 mL blood sample will be taken from the jugular vein, for 24 hrs biomarkers quantification. • 11) The heart will be excised and mounted into a Langendorff apparatus. […]

SMILES | Infarct size, % of area at risk (isolated rat hearts) | White Necrotic Area, % of area at risk (isolated rat hearts) | BUN, % Protection, Mean (rat [1]) | Plasma Creatinine, % Protection, Mean (rat [1]) | Infarct size (%), Mean (rat [2])
Cc1cc(O)cc(C)c1C[C@H](NC(=O)[C@H](N)CCNC(=N)N)C(=O)N[C@@H](Cc1c[nH]cn1)c1nc(CC23CC4CC(CC(C4)C2)C3)no1 [Example 68, (R)-N-((S)-1-(((S)-1-(3-(adamantan-1-yl)methyl-1,2,4-oxadiazol-5-yl)-2-(1H-imidazol-4 yl)ethyl)amino)-3-(4-hydroxy-2,6-dimethylphenyl)-1-oxopropan-2-yl)-2-amino-4-guanidinobutanamide] | 35% | 18% | – | – | –
Cc1cc(O)cc(C)c1C[C@H](NC(=O)[C@H](N)CCCNC(=N)N)C(=O)N[C@@H](CCCCN)c1nc(CC23CC4CC(CC(C4)C2)C3)no1 [Example 37, (R)-N-((S)-1-(((S)-1-(3-(adamantan-1-ylmethyl)-1,2,4-oxadiazol-5-yl)-5-aminopentyl)amino)-3-(4-hydroxy-2,6-dimethylphenyl)-1-oxopropan-2-yl)-2-amino-5-guanidinopentanamide] | – | – | 44.3% | 30.7% | 29.2%
Cc1cc(O)cc(C)c1C[C@H](NC(=O)[C@H](N)CCCn1ccnc1N)C(=O)N[C@@H](CCCCN)c1nc(CC2CCCCC2)no1 [Example 65, (R)-2-amino-N-((S)-1-(((S)-5-amino-1-(3-(cyclohexylmethyl)-1,2,4-oxadiazol-5 yl)pentyl)amino)-3-(4-hydroxy-2,6-dimethylphenyl)-1-oxopropan-2-yl)-5-(2-amino-1H-imidazol-1-yl)pentanamide] | 24% | 17% | – | – | –
Cc1cc(O)cc(C)c1C[C@H](NC(=O)[C@H](N)CCNC(=N)N)C(=O)N[C@@H](CCCCN)c1nc(Cc2ccccc2)no1 [Example 64, (R)-2-amino-N-((S)-1-(((S)-5-amino-1-(3-benzyl-1,2,4-oxadiazol-5 yl)pentyl)amino)-3-(4-hydroxy-2,6-dimethylphenyl)-1-oxopropan-2-yl)-4-guanidinobutanamide] | 38% | 20% | – | – | –
Cc1cc(O)cc(C)c1C[C@H](NC(=O)[C@H](N)CCCn1ccnc1N)C(=O)N[C@@H](CCCN)c1nc(CC2CCCCC2)no1 [Example 42, (R)-2-amino-N-((S)-1-(((S)-4-amino-1-(3-(cyclohexylmethyl)-1,2,4-oxadiazol-5 yl)butyl)amino)-3-(4-hydroxy-2,6-dimethylphenyl)-1-oxopropan-2-yl)-5-(2-amino-1H-imidazol-1-yl)pentanamide] | – | – | 50.4% | 53.4% | –
Cc1cc(O)cc(C)c1C[C@H](NC(=O)[C@H](N)CCCNC(=N)N)C(=O)N[C@@H](Cc1c[nH]cn1)c1nc(CCc2ccccc2)no1 [Example 53, (R)-N-((S)-1-(((S)-2-(1H-imidazol-4-yl)-1-(3 phenethyl-1,2,4-oxadiazol-5 yl)ethyl)amino)-3-(4-hydroxy-2,6-dimethylphenyl)-1-oxopropan-2-yl)-2-amino-5-guanidinopentanamide] | 30% | 21% | – | – | –
Cc1cc(O)cc(C)c1C[C@H](NC(=O)[C@H](N)CCCNC(=N)N)C(=O)N[C@@H](CCCCN)c1nc(C23CC4CC(CC(C4)C2)C3)no1 [Example 38, D-Arg-DMT-NH((S)-1-(3-(adamantan-1-yl)-1,2,4-oxadiazol-5-yl)-5-aminopent-1-yl)] | 31% | 15% | – | – | 30.6%
Cc1cc(O)cc(C)c1C[C@H](NC(=O)[C@H](N)CCCNC(=N)N)C(=O)N[C@@H](CCCCN)c1nc(Cc2ccccc2)no1 [Example 31, (R)-2-amino-N-((S)-1-(((S)-5-amino-1-(3-benzyl-1,2,4-oxadiazol-5-yl)pentyl)amino)-3-(4-hydroxy-2,6-dimethylphenyl)-1-oxopropan-2-yl)-5-guanidinopentanamide] | 35% | 22% | 81.4% | 86.2% | 16.4%
Cc1cc(O)cc(C)c1C[C@H](NC(=O)[C@H](N)CCCNC(=N)N)C(=O)N[C@@H](CCCCN)c1nc(Cc2ccc(C(C)(C)C)cc2)no1 [Example 33, (R)-2-amino-N-((S)-1-(((S)-5-amino-1-(3-(4-(tert-butyl)benzyl)-1,2,4-oxadiazol-5 yl)pentyl)amino)-3-(4-hydroxy-2,6-dimethylphenyl)-1-oxopropan-2-yl)-5-guanidinopentanamide] | – | – | 35.9% | 38.9% | –
Cc1cc(O)cc(C)c1C[C@H](NC(=O)[C@@H](CCN)NC(=N)N)C(=O)N[C@@H](CCCN)c1nc(Cc2ccccc2)no1 [Example 82, (R)-4-amino-N-((S)-1-(((5)-4-amino-1-(3-benzyl-1,2,4-oxadiazol-5-yl)butyl)amino)-3-(4-hydroxy-2,6-dimethylphenyl)-1-oxopropan-2-yl)-2-guanidinobutanamide] | 42% | 24% | 25.5% | 32.0% | –
